The record followed here is US20230104487A1, “11-(4-CHLOROPHENYL)-4-(2,3-DIHYDRO-1H-INDOLE-1-CARBONYL)-3,11-DIMETHYL-5,10,DIOXATRICYCLO[7.4.0.0,2,6,]TRIDECA-1,3,6,8-TETRAEN-13-ONE AND DERIVATIVES AS DESTABILIZER OF CRY1 FOR THE TREATMENT OF CIRCADIAN RHYTHM ASSOCIATED DISEASES AND DISORDERS” (KOC UNIVERSITESI, priority 2019, published 2023).

Entries after “also recorded” stand apart in the source; their conditions may differ.

This test deals with T1, CRY1 (Mus musculus, UniProt P97784).
T1 sequence (P97784 1-606): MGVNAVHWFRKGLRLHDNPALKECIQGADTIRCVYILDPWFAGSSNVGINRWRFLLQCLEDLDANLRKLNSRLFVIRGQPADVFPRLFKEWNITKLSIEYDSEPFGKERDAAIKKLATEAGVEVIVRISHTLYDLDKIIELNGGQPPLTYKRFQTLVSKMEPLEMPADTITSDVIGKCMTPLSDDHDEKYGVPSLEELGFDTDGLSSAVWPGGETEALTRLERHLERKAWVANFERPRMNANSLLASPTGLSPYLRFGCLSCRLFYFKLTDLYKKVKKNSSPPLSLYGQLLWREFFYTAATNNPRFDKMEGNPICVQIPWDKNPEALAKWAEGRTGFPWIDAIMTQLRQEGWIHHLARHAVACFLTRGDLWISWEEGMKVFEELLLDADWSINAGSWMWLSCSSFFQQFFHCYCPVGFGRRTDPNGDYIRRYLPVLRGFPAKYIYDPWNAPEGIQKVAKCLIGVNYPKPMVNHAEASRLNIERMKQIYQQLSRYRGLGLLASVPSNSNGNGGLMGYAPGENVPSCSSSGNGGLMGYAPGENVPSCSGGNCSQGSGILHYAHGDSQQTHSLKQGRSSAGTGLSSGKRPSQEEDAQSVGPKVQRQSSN
The test can be described thus: CRY1 level in mouse liver (whole cell lysate, cytosolic and nuclear fraction). The class given is in vivo. The following applies: 25 and 50 mg/kg i.p., 6 h. Also on record: from tissue; host or cells: liver of C57BL/6J mice. As to the method: FIGS. 5A-5G are an illustration of FORMULA I decreased the nuclear CRY1 in mice liver. FORMULA I (25 mg/kg or 50 mg/kg) or vehicle intraperitoneally administered to C57BL/6J mice. 6 h after the treated mice were sacrificed (n=3). […] FIGS. 5A-5B show an effect of FORMULA I in WCL. FIG. 5C-5D show an effect of FORMULA I in cytosolic fraction. FIGS. 5E-5F show an effect of FORMULA I in nuclear fraction of muce liver. […] (Data represent the mean±SEM, n=3 (with duplicates in RT-PCR) *: p<0.05 versus control by student t-test).
Cells were lysed in RIPA buffer (50 mM Tris, 150 mM NaCl, 1% Triton-X, 0.1% SDS) with fresh Protease inhibitor cocktail (PIC). After centrifugation at 13000 rpm for 15 minutes at 4° C., supernatant was used to determine the protein amount using Pierce Protein Assay (Thermo Scientific) according to the manufacturer's instruction. Mice liver samples were homogenized and lysed with Dounce homogenizer and RIPA buffer. After homogenization samples were incubated 10 minutes on ice. After centrifugation 13000 rpm 15 minutes at 4° C. supernatant was used for the whole cell lysate. Subcellular fractionation of liver samples: Liver samples were homogenized with cytosolic lysis buffer (10 mM HEPES pH 7.9, 10 mM KCl, 0.1 mM EDTA, 0.05% NP40, proteasome inhibitor) by pipetting 40 times with a cut tip. Then samples were incubated 10 minutes on ice and centrifuged for 3 minutes at 3000 rpm at 4° C. Supernatant was saved in a new tube, and pellet was processed for the nuclear fraction. Supernatant was centrifuged at 13000 rpm for 3 minutes at 4° C. where new supernatant saved as the cytosolic fraction. […] ECL buffer system (Advansta WesternBright) was used to visualize HRP chemi-luminescence via BioRad ChemiDoc Touch visualizer. […]
Since CRYs are stabilized and degraded differently in cytosolic and nuclear compartments, we further analyzed the level of CRY1 in the cytosolic and nuclear fraction of the mouse liver. […]

Take `Cc1c(C(=O)N2CCc3ccccc32)oc2ccc3c(c12)C(=O)CC(C)(c1ccc(Cl)cc1)O3` (stereo not drawn) [FORMULA I, 11-(4-chlorophenyl)-4-(2,3-dihydro-1H-indole-1-carbonyl)-3,11-dimethyl-5,10,dioxatricyclo[7.4.0.0,2,6,]trideca-1,3,6,8-tetraen-13-one]: the “CRY1 level in cytosolic fraction of liver” value was “not statistically significant compared to controls; also recorded: slightly decreased the CRY1 levels”, the “CRY1 level in nuclear fraction of liver” value was “significantly low compared to controls in dose dependent manner; also recorded: decreased the nuclear CRY1 level significantly; also recorded: selectively decrease CRY1 level in the nucleus” and the “CRY1 level in whole cell lysate of liver” value is listed as “slight decrease in CRY1 levels; also recorded: slightly decreased the CRY1 levels”.
